# PMC12040169 (PLOS Biology, 2025)
# Test: in vitro
# Details: human, hela cells, % viability
row,Compound,"viability at 28.5 h, 10 µM [%]"
1,Cc1nn2c(CN(C(=O)COc3ccccc3)c3ccccc3)nnc2c2ccccc12 [CBK268036],83.4
2,COc1ccc([N+](=O)[O-])cc1COc1ccc2ccc(=O)oc2c1 [CBK264597],106
3,CC(C)(C)CNc1ccc(S(=O)(=O)N2CCOC2=O)cc1 [CBK028347],113
4,CCOC(=O)c1sc2ncccc2c1N [CBK115371],83.9
5,Cn1ccnc1C1(O)CCN(C(=O)C2(c3ccccc3)CC2)CC1 [CBK283538],98.4
6,O=C(c1ccco1)N1CCN(c2cc(-c3cc(C(F)(F)F)cc(C(F)(F)F)c3)ncn2)CC1 [CBK037734],102
7,O=C(Nc1ccccn1)c1cc2ccccc2oc1=O [CBK287354],91.7
8,Fc1ccc2c(-c3ccccc3)noc2c1 [CBK025975],86.8
9,CN(C)CCNc1cc(-c2ccncc2)nc2ccccc12 [CBK066898B],90.4
10,COc1cccc(-n2ncc(-c3cccnc3)n2)c1 [CBK112813],89.9
11,CCOC(=O)Cn1cnc2nc3c(cc2c1=O)CC(C)CC3 (centres unmarked) [CBK294402],90.6
12,CCc1noc(CN2CCCC(c3ccc(C(=O)O)cc3)C2)n1 (centres unmarked) [CBK307102],105
13,O=C(O)c1snnc1-c1ccccc1 [CBK021545],90.9
14,CCOC(=O)C(CNS(=O)(=O)c1ccc(F)cc1C)Cc1ccccc1 (centres unmarked) [CBK305427],92.3
15,O=C(Cc1cccc2ccccc12)NC(=S)Nc1ccc(S(=O)(=O)N2CCCCC2)cc1 [CBK266283],106
16,COc1ccc(OC)c(-c2ccc(NC(=O)c3ccc(Cl)cc3Cl)c(C(=O)O)c2)c1 [CBK000393D],90.8
17,Fc1ccccc1CSc1nnc(-c2cnccn2)n1Cc1ccco1 [CBK267556],96.4
18,Cc1[nH]c2ccc(CNC(=O)NC3CCCc4cn[nH]c43)cc2c1C (centres unmarked) [CBK305488],89.8
19,O=C(NNS(=O)(=O)c1ccc([N+](=O)[O-])cc1)Nc1cccc(C(F)(F)F)c1 [CBK266871],105
20,CC(C)Nc1cc(OCc2cccnc2)ncn1 [CBK115883],91.3
21,CCOc1ccc(-n2nnnc2SCC(=O)c2ccc(Cl)c(Cl)c2)cc1 [CBK141942],88.7
22,Fc1ccc(-c2noc([C@@H]3CCCN3Cc3ncc[nH]3)n2)nc1 [CBK288897],102
23,COc1ccc(C(=O)NC(CC(=O)O)c2ccc(OC)cc2)cc1 (centres unmarked) [CBK266188],101

row,Compound,"viability at 28.5 h, 10 µM [%]"
1,CN1[C@@H](CCC(=O)N2CCN(c3ccccn3)CC2)CNC(=O)[C@H]2NCC[C@H]21 [CBK289031],95.2
2,CCCn1c(=O)c(Cc2ccccc2)c(O)c2ccccc21 [CBK291175],89.3
3,COc1ccc([N+](=O)[O-])cc1COc1ccc2c(C(F)(F)F)cc(=O)oc2c1 [CBK265173],96.4
4,Cc1c[n+]2ccsc2n1Cc1ccccc1C#N [CBK260951B],116
5,CCN(CC)CCN1CCN(c2cc(-c3cccc4ccccc34)ncn2)CC1 [CBK091196],99.9
6,CCc1noc(C)c1C(=O)Nc1cc(S(=O)(=O)N2CCCCC2)ccc1N(C)C [CBK295328],85.4
7,Clc1ccc(-c2c[nH]c([C@@H]3COCCN3Cc3c[nH]cn3)n2)cc1 [CBK289316],105
8,O=C(O)CC1C(=O)NCCN1CCCc1ccccc1 (centres unmarked) [CBK287176],90.2
9,O=C(Nc1ccccc1-c1ccccc1)c1cc(-c2ccncc2)nc2ccc(Cl)cc12 [CBK267759],95
10,O=C(Cc1ccc(Br)cc1)N1CCC(Cc2ccccc2)CC1 [CBK058493],96.7
11,CC(C)c1nc(C2CCCN(c3ncc(C#N)cc3Cl)C2)no1 (centres unmarked) [CBK304128],111
12,Clc1cc2nc(Sc3ccccn3)c(N3CCCC3)nc2cc1Cl [CBK093754],100
13,CC(C)(C)OC(=O)N1CCN(CCn2cc(C(=O)O)nn2)CC1 [CBK287112],86.8
14,O=C(c1cccc(C(F)(F)F)c1)N1CCCCCC1 [CBK074291],98.4
15,Cc1nnc(C(C)Sc2nnc(N3CCC(C)CC3)n2Cc2ccco2)o1 (centres unmarked) [CBK298311],96.6
16,C#CCOc1cn([C@H]2C[C@@H](O)[C@@H](CO)O2)c(=O)[nH]c1=O [CBK201278],91.7
17,O=[N+]([O-])c1ccc(CNCCc2c[nH]c3ccccc23)cc1 [CBK262275],80.4
18,CC(C)(C)C(=O)Nc1ccc(Cc2ccc(NC(=O)C(C)(C)C)c(C(=O)O)c2)cc1C(=O)O [CBK261393],104
19,CSCCN1CCCN(c2nccc(OCc3ccc(Cl)c(Cl)c3)n2)CC1 [CBK083960],70.5
20,Cc1cc(C2CCCN2C(=O)c2cnn3c(C)cc(C)nc23)on1 (centres unmarked) [CBK305634],109
21,Cc1ccnc(SCC(=O)N2CCc3ccccc3C2)n1 [CBK288218],91.7
22,Cc1nn(C)c(O)c1Cc1c(F)cccc1Cl [CBK067759],92.5
23,CSCC[C@H](NC(=O)OC(C)(C)C)C(=O)NCc1csc(-c2ccccc2)n1 [CBK092345],88

row,Compound,"viability at 28.5 h, 10 µM [%]"
1,COc1ccc(Br)cc1C(=O)Nc1cc(-c2nc3ccccc3[nH]2)ccc1Cl [CBK264112],93.6
2,Cc1noc2nc(-c3ccccc3F)cc(C(=O)N3CCCC3c3nnc4ccccn34)c12 (centres unmarked) [CBK296756],93.2
3,COc1ccc(N(CC(=O)N2CCN(Cc3ccc4c(c3)OCO4)CC2)S(C)(=O)=O)cc1Cl [CBK265258],84.3
4,Cc1c(C(C)NCC(O)c2ccncc2)cnn1-c1ccc(C#N)cc1 (centres unmarked) [CBK305403],85
5,Cc1nn(C)cc1S(=O)(=O)Nc1cccc(-c2ccc(F)cc2)c1 [CBK282788],103
6,Cc1ccc(CN(CC(=O)N2CCCCC2)S(=O)(=O)c2ccc(C)cc2)cc1 [CBK264646],91.6
7,CC(C)N(CCOc1nccnc1-c1cnn(C)c1)C(C)C [CBK107084],103
8,COc1ccc(C)cc1N1CCCN(c2cc(C)ccc2OC)C1=O [CBK006937],84.8
9,c1ccc(-c2nc3ccc(Oc4ccc5nc(-c6ccccn6)c(-c6ccccn6)nc5c4)cc3nc2-c2ccccn2)nc1 [CBK261964],99.6
10,COc1ccc(Nc2nnc(-c3ccc(C(=O)NCCO)cc3)c3ccccc23)cc1 [CBK263735],90.5
11,CC(C)(C)C(C#N)C(Oc1ccc(Cl)cc1)n1cncn1 (centres unmarked) [CBK023570],90.3
12,CN(C)Cc1c(O)ccc2occ(C(=O)c3cccs3)c12 [CBK261959C],103
13,Cc1ccc(S(=O)(=O)N2CCN(C(=O)C3C4C=CC(C4)C3C(=O)O)CC2)cc1 (centres unmarked) [CBK286944],106
14,CC(/C=C1\SC(=S)N(C(Cc2ccccc2)C(=O)O)C1=O)=C\c1ccccc1 (centres unmarked) [CBK263524],91.7
15,COc1cc(CNc2cc(-c3cccc4cccnc34)ncn2)cc(OC)c1OC [CBK091179],76.6
16,Cc1ccccc1NC(=O)CC(C(=O)O)N1CCOCC1 (centres unmarked) [CBK266969],113
17,Cn1c(SCC(=O)Nc2ccc(Oc3ccc(Cl)cc3)cc2)nnc1-c1ccncc1 [CBK269654],95.6
18,COc1cc(C2NC(=S)NC(c3ccccc3)=C2C(=O)c2ccccc2)cc(I)c1OCCO (centres unmarked) [CBK267485],86.7
19,CSc1ccccc1C(=O)NCCN(C)C [CBK269757],90.9
20,Nc1ncnc2c1ncn2CCN1CCOCC1 [CBK269049],104
21,CC(C)(C)NC(=O)CCn1c(-c2ccncc2)cc2cccnc21 [CBK282620],95.4
22,CCOc1ccc(C(CC(=O)O)C(=O)O)cc1 (centres unmarked) [CBK261363],96.7
23,O=C(O)c1cc(-c2ccc(/C=C3\NC(=O)N(Cc4ccccc4)C3=O)o2)ccc1Cl [CBK078117],98.9

row,Compound,"viability at 28.5 h, 10 µM [%]"
1,N=c1c2c3c(sc2ncn1CCCN1CCOCC1)CCCC3 [CBK268323],94.6
2,Cc1nc2sc(C(=O)OCc3cc(=O)oc4cc5c(cc34)CCC5)c(C)c2c(=O)[nH]1 [CBK297528],114
3,COc1ccc([N+](=O)[O-])cc1NC(=O)c1cc(-c2ccccc2Cl)nc2ccc(C)cc12 [CBK267764],94.1
4,COc1cccc2sc(Nc3nc4ccc(S(C)(=O)=O)cc4s3)nc12 [CBK287472],104
5,COCCC(=O)NCc1ccccc1OC1CCNC1 (centres unmarked) [CBK024504T],136
6,CC1CCCN(C(=O)c2cc(-c3ccccn3)n[nH]2)C1C (centres unmarked) [CBK283146],88.5
7,Cc1ccc2nc(NC(=O)COc3ccccc3)sc2c1 [CBK287335],91
8,Cc1onc(-c2ccccc2)c1CNC(=O)CC1CCCCC1 [CBK144078],89.1
9,O=C(O)c1ccc(NS(=O)(=O)c2ccc3ccccc3c2)cc1 [CBK034053],96.6
10,CS(=O)(=O)c1ccc(-c2nccnc2N[C@@H]2CCN(Cc3ccccc3)C2)cc1 [CBK037667],102
11,c1csc(-c2nccnc2NCCc2ccncc2)c1 [CBK036764],108
12,Cc1nn(C)c(C)c1CN(C)C(=O)C(C)Cn1cc(Cl)cn1 (centres unmarked) [CBK282187],92.8
13,CC[C@H]1CN(C(=O)c2cccnc2)CC[C@H]1CC(=O)NCc1cccs1 [CBK288773],89.7
14,Cc1nc(C)c(CC(=O)NC(c2ccncc2)c2cccs2)s1 (centres unmarked) [CBK281439],96.6
15,COc1nccnc1OC1CCN(Cc2ccc(C(F)(F)F)cc2)CC1 [CBK084243],79.3
16,CCN1CCN(c2nccnc2OCc2cccnc2)CC1 [CBK083142],113
17,Cn1cc(C(=O)N2CCCC3(C/C=C/COc4ccccc4C(=O)NCCNC3=O)C2)cn1 (centres unmarked) [CBK292102],96.4
18,COCC(=O)N[C@H]1CCN2C(=O)c3cc(-c4cccc(C)c4C)ccc3NC(=O)[C@@H]2C1 [CBK289562],90.7
19,CC(C)(CO)CNc1cncc(-c2cccc(C(F)(F)F)c2)n1 [CBK065248],102
20,C[C@@H](Nc1nccnc1-c1ccc(C(=O)N2CCOCC2)cc1)c1ccccc1 [CBK037058],107
